# In patent US9567280B2, “Preparation of hop acids and their derivatives” (MillerCoors LLC, priority 2010, dated 2017):
# “Also recorded” adds a separate entry of the source.
# Columns and labels:
# Pediococcus damnosus [1] = assay: Minimum inhibitory concentration (MIC) in modified BMB without Tween 80 culture medium; format: cell-based; set-up: key to Growth of beer spoilage bacteria: + = Growth of beer spoilage bacteria; − = No growth of beer spoilage bacteria; +/− = Partial inhibition of bacterial growth; conditions: for Growth of beer spoilage bacteria: hop acids in 70% ethanol; for Minimum inhibitory concentration (MIC): concentration at which no bacteria were detected
# Description: (§1) The antimicrobial effect of three molecules was tested on Pediococcus damnosus and Lactobacillus brevis with two methods (MIC and BZI). MIC was determined based on the concentration at which no bacteria were detected in the modified BMB without Tween 80 culture medium. […] The average diameters of the zones of bacterial inhibition in Universal Beer Agar (UBA) produced by the filter paper disks immersed in 4000 ppm of THICO I, II, and III in 70% ethanol/water are shown in Table 5. Zone diameters increased with the same rates for three molecules on two different organisms (Pediococcus damnosus and Lactobacillus brevis) indicate that all molecules have the same antibacterial effectiveness. No enantioselective antibacterial interactions between THICO I, II, III and the microbial occur.
# [2] = Sensory evaluation of unhopped lagers spiked with THICO
# Description: Two sets of unhopped lagers (A and B) were spiked with 6 ppm and 13 ppm of THICO I, II, and III, respectively.
# The other two beers were noted as being similar with initial intense bitterness that diminished slowly with slight lingering bitterness.
# [3] = Bitterness perception in aqueous 5% v/v ethanol/H2O solution; conditions: 6 ppm in 5% ethanol/H2O
# Description: An aqueous 5% v/v ethanol/H2O solution was spiked with 6 ppm of THICO I, II, and III.
# Lactobacillus brevis = assay: Bacterial zone of inhibition (BZI), filter paper disks on Universal Beer Agar; format: cell-based; conditions: disks immersed in 4000 ppm in 70% ethanol/water
# Description: as §1
# Pediococcus damnosus [4] = assay: as above; format: cell-based; conditions: disks immersed in 4000 ppm in 70% ethanol/water
# Description: as §1
# [5] = set A: unhopped lager spiked with 6 ppm
Substance,Growth of beer spoilage bacteria (Pediococcus damnosus [1]; 0.5 ppm),Growth of beer spoilage bacteria (Pediococcus damnosus [1]; 1 ppm),Growth of beer spoilage bacteria (Pediococcus damnosus [1]; 2 ppm),Growth of beer spoilage bacteria (Pediococcus damnosus [1]; 4 ppm),Growth of beer spoilage bacteria (Pediococcus damnosus [1]; 8 ppm),Growth of beer spoilage bacteria (Pediococcus damnosus [1]; 16 ppm),Growth of beer spoilage bacteria (Pediococcus damnosus [1]; 32 ppm),Growth of beer spoilage bacteria (Pediococcus damnosus [1]; 64 ppm),Growth of beer spoilage bacteria (Pediococcus damnosus [1]; 128 ppm),Minimum inhibitory concentration (MIC) (Pediococcus damnosus [1]),"Sensory evaluation of bitterness in beer [2, 5]",Bitterness intensity (rank order) [3],Diameter of Bacterial Zone of Inhibition (Lactobacillus brevis),Diameter of Bacterial Zone of Inhibition (Pediococcus damnosus [4]),Bitterness (bitter perception) [3],Bitterness (bitter perception) ([3]; listed as (±)-THICO III),Bitterness intensity (rank order) ([3]; listed as (±)-THICO III),"Sensory evaluation of bitterness in beer ([2]; set A: unhopped lager spiked with 6 ppm, listed as THCO II)",Sensory evaluation of bitterness in beer ([2]; set B: unhopped lager spiked with 13 ppm)
(+)-cis- and (−)-trans-THICO [THICO I],+,+,+,+,+,+/−,−,−,−,16 ppm,a little more initial bitterness,THICO II>(±)-THICO III>THICO I,26 mm,11.5 mm,,,,,
(±)-cis- and (±)-trans-tetrahydroisocohumulones [THICO III],,,,,,,,,,,diminished quickly,II>III>I,22.5 mm,12 mm,"smooth and milder than the others; also recorded: smooth, milder, clean","milder and smooth bitterness than THICO I; also recorded: smooth, clean and milder than I and II",THICO II>(±)-THICO III>THICO I,,
(−)-cis- and (+)-trans-tetrahydro isocohumulone [THICO II],+,+,+,+,+,+/−,−,−,−,16 ppm,the most bitterness and longest lingering,THICO II>(±)-THICO III>THICO I,26.5 mm,12 mm,,,,the strongest initial bitterness and lingered the longest,strong initial bitterness that increased (described as late bitterness) and also lingered
